Molecular target: T1, human TRPV1 (Homo sapiens, UniProt Q8NER1)
T1 construct: expressed in transfected cells; host or cells: CHO-K1
Test: Measurement of capsaicin-induced Ca influx in human TRPV1 transformed CHO cell line using FDSS-6000
Assay type: cell-based
Settings: concentration at which the capsaicin concentration-reaction curve is shifted two times to the right, human TRPV1 transformed CHO cells
Description: [Measurement of Capsaicin-Induced Ca Influx in Human TRPV1 Transformed CHO Cell Line]
(1) Establishment of Human TRPV1 Transformed CHO Cell Line
Human vanilloid receptor 1 (hTRPV1) cDNA was cloned from a human brain. The cloned hTRPV1 cDNA was incorporated in a pCAGGS vector. The gene of the vector was introduced to a CHO-K1 cell line, thus performing transformation. Clones obtained by limiting dilution were stimulated with capsaicin. Clones with a high responsiveness were selected using an increase in the Ca concentration as an indicator. The selected clones were used for the following experiment.
(2) Measurement of Ca Influx Using FDSS-6000
The human TRPV1 transformed CHO cells were seeded in a 96-well plate (with black walls and transparent bottoms, manufactured by Greiner) at a density of 40,000 cells per well. The cells were cultured at 37° C. in 5% CO2 for one night. A loading solution of FLIPR Calcium 3 assay kit (manufactured by Molecular Devices Corporation) containing 2.5 mmol/L of probenecid was then added to each of the wells in the same amount as the culture medium, and the cells were cultured at 37° C. for 60 minutes. After the cells were stimulated with capsaicin (1 nmol/L to 1 μmol/L), the change in the Ca concentration in the cells was measured using FDSS-6000 (λex: 480 nm, λem: 540 nm, manufactured by Hamamatsu Photonics K.K.) for three minutes. The integrated values of the increase rate of the Ca concentration in the cells were calculated for a group treated with the compounds of the present invention and a group treated with a medium, thus allowing capsaicin concentration-reaction curves to be obtained. A concentration (A2 value) of each of the compounds of the present invention, at which the capsaicin concentration-reaction curve obtained when the cells were treated with the medium was shifted two times to the right side, was calculated. The inhibiting effects of the test compounds were compared using this value as an indicator.
In the case where a compound of the present invention is an agonist, when the cells are treated with the compound of the present invention prior to the capsaicin stimulation, the Ca influx is observed. In Table 1, compounds of the present invention having an A2 value of less than 100 nM are represented by A, and compounds having an A2 value of 100 nM or more are represented by B. When the A2 values of the compounds of the present invention were measured by the above-described method, the compounds have an intensity of 1 μM or less.

T1 sequence (Q8NER1 whole entry): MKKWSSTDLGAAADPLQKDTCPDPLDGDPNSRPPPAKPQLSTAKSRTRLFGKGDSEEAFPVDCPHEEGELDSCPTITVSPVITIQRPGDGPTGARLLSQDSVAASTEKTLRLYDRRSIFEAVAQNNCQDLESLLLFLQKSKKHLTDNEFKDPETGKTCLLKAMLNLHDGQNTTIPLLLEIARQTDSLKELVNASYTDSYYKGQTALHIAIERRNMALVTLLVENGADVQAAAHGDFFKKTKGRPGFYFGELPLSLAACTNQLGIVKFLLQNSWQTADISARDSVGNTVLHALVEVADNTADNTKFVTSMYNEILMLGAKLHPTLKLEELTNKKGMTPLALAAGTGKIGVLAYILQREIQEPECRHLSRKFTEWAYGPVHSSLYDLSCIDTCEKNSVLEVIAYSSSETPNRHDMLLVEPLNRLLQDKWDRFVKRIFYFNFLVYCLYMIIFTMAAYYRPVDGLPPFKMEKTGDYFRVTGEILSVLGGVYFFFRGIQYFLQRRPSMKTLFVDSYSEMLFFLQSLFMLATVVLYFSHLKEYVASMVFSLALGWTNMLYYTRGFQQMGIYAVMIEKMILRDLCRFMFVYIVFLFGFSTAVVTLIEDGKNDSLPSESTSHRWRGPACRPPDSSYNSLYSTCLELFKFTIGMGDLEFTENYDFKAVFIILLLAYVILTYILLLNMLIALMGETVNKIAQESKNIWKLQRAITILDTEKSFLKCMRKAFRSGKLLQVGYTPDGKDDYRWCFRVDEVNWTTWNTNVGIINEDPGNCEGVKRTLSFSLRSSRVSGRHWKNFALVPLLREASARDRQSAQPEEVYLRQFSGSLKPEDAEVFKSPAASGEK

**Q.** For `O=C(/C=C1\CCCOc2cc(C(F)(F)F)ccc21)Nc1ccc(C(=O)N2CCOCC2)cc1` [Example 25, (E)-2-(8-trifluoromethyl-3,4-dihydrobenzo[b]oxepin-5(2H)-ylidene)-N-(4-(4-morpholinylcarbonyl)phenyl)acetamide], which “A2 VALUE” is on record?
**A.** Its value is “B (compounds having an A2 value of 100 nM or more are represented by B)”.

**Q.** How did the “A2 VALUE” turn out when `O=C(/C=C1\CCCOc2cc(C(F)(F)F)ccc21)Nc1ccc(S(=O)(=O)N2CCOCC2)cc1` [Example 26, (E)-2-(8-trifluoromethyl-3,4-dihydrobenzo[b]oxepin-5(2H)-ylidene)-N-(4-(4-morpholinylsulfonyl)phenyl)acetamide] was run?
**A.** Its value is “B (compounds having an A2 value of 100 nM or more are represented by B)”.

**Q.** How did the “A2 VALUE” turn out when `O=C(/C=C1\CCCOc2cc(C(F)(F)F)ccc21)Nc1ccc(Oc2ccc(C(F)(F)F)cn2)cc1` [Example 27] was run?
**A.** Its value is “B (compounds having an A2 value of 100 nM or more are represented by B)”.

**Q.** For `O=C(/C=C1\CCCOc2cc(C(F)(F)F)ccc21)Nc1cccc(-c2cnc3ccccc3n2)c1` [Example 28, (E)-2-(8-trifluoromethyl-3,4-dihydrobenzo[b]oxepin-5(2H)-ylidene)-N-(3-(quinoxalin-2-yl)phenyl)acetamide], which “A2 VALUE” is on record?
**A.** Its value is “B (compounds having an A2 value of 100 nM or more are represented by B)”.

**Q.** How did the “A2 VALUE” turn out when `O=C(/C=C1\CCCOc2cc(C(F)(F)F)ccc21)Nc1ccc(Cc2ccncc2)cc1` [Example 29, (E)-2-(8-trifluoromethyl-3,4-dihydrobenzo[b]oxepin-5(2H)-ylidene)-N-(4-((pyridin-4-yl)methyl)phenyl)acetamide] was run?
**A.** The value was “B (compounds having an A2 value of 100 nM or more are represented by B)”.

**Q.** Which “A2 VALUE” does the source give for `CC(NC(=O)/C=C1\CCCOc2cc(C(F)(F)F)ccc21)c1ccccn1` (stereo not shown) [Example 30, (E)-2-(8-trifluoromethyl-3,4-dihydrobenzo[b]oxepin-5(2H)-ylidene)-N-(1-(pyridin-2-yl)ethyl)acetamide] here?
**A.** Its value is “B (compounds having an A2 value of 100 nM or more are represented by B)”.

**Q.** Which “A2 VALUE” does the source give for `O=C(/C=C1\CCCOc2cc(C(F)(F)F)ccc21)NC(c1ccccc1)c1ccccn1` (stereo not shown) [Example 31, (E)-2-(8-trifluoromethyl-3,4-dihydrobenzo[b]oxepin-5(2H)-ylidene)-N-(phenyl(pyridin-2-yl)methyl)acetamide] here?
**A.** The value was “B (compounds having an A2 value of 100 nM or more are represented by B)”.

**Q.** `O=C(/C=C1\CCCOc2cc(C(F)(F)F)ccc21)NCc1ccc2c(c1)OCCO2` [Example 32, (E)-2-(8-trifluoromethyl-3,4-dihydrobenzo[b]oxepin-5(2H)-ylidene)-N-((2,3-dihydrobenzo[b][1,4]dioxin-6-yl)methyl)acetamide] was tested. Which “A2 VALUE” did it give?
**A.** Its value is “B (compounds having an A2 value of 100 nM or more are represented by B)”.

**Q.** How did the “A2 VALUE” turn out when `CC(NC(=O)/C=C1\CCCOc2cc(C(F)(F)F)ccc21)c1ccc2c(c1)OCCO2` (stereo not shown) [Example 33, (E)-2-(8-trifluoromethyl-3,4-dihydrobenzo[b]oxepin-5(2H)-ylidene)-N-(1-(2,3-dihydrobenzo[b][1,4]dioxin-6-yl)ethyl)acetamide] was run?
**A.** Its value is “B (compounds having an A2 value of 100 nM or more are represented by B)”.

**Q.** How did the “A2 VALUE” turn out when `O=C(/C=C1\CCCOc2cc(C(F)(F)F)ccc21)NCC1COc2ccccc2O1` (stereo not shown) [Example 34, (E)-2-(8-trifluoromethyl-3,4-dihydrobenzo[b]oxepin-5(2H)-ylidene)-N-((2,3-dihydrobenzo[b][1,4]dioxin-2-yl)methyl)acetamide] was run?
**A.** Its value is “B (compounds having an A2 value of 100 nM or more are represented by B)”.

**Q.** `O=C(/C=C1\CCCOc2cc(C(F)(F)F)ccc21)NCc1ccc2c(c1)CCO2` [Example 35, (E)-2-(8-trifluoromethyl-3,4-dihydrobenzo[b]oxepin-5(2H)-ylidene)-N-((2,3-dihydrobenzofuran-5-yl)methyl)acetamide] was tested. Which “A2 VALUE” did it give?
**A.** The value was “B (compounds having an A2 value of 100 nM or more are represented by B)”.

**Q.** For `O=C(/C=C1\CCCOc2cc(C(F)(F)F)ccc21)NCc1ccccc1N1CCOCC1` [Example 36, (E)-2-(8-trifluoromethyl-3,4-dihydrobenzo[b]oxepin-5(2H)-ylidene)-N-(2-morpholinophenyl)methyl-acetamide], which “A2 VALUE” is on record?
**A.** The value was “B (compounds having an A2 value of 100 nM or more are represented by B)”.

**Q.** For `O=C(/C=C1\CCCOc2cc(C(F)(F)F)ccc21)NCc1ccc(-c2csnn2)cc1` [Example 37, (E)-2-(8-trifluoromethyl-3,4-dihydrobenzo[b]oxepin-5(2H)-ylidene)-N-(4-(1,2,3-thiadiazolo-4-yl)phenylmethyl)acetamide], which “A2 VALUE” is on record?
**A.** Its value is “B (compounds having an A2 value of 100 nM or more are represented by B)”.

**Q.** How did the “A2 VALUE” turn out when `O=C(/C=C1\CCCOc2cc(C(F)(F)F)ccc21)NCc1ccc(-n2cccn2)cc1` [Example 38, (E)-N-(4-(1H-pyrazolo-1-yl)phenylmethyl)-2-(8-trifluoromethyl-3,4-dihydrobenzo[b]oxepin-5(2H)-ylidene)acetamide] was run?
**A.** Its value is “B (compounds having an A2 value of 100 nM or more are represented by B)”.

**Q.** Which “A2 VALUE” does the source give for `Cc1nc(-c2ccc(Cl)cc2)sc1CNC(=O)/C=C1\CCCOc2cc(C(F)(F)F)ccc21` [Example 39, (E)-N-((2-(4-chlorophenyl)-4-methylthiazol-5-yl)methyl)-2-(8-trifluoromethyl-3,4-dihydrobenzo[b]oxepin-5(2H)-ylidene)acetamide] here?
**A.** Its value is “B (compounds having an A2 value of 100 nM or more are represented by B)”.

**Q.** How did the “A2 VALUE” turn out when `O=C(/C=C1\CCCOc2cc(C(F)(F)F)ccc21)NCc1nnc2ccccn12` [Example 40] was run?
**A.** Its value is “B (compounds having an A2 value of 100 nM or more are represented by B)”.

**Q.** `Cn1nc(NC(=O)/C=C2\CCCOc3cc(C(F)(F)F)ccc32)c2cccnc21` [Example 41, (E)-2-(8-trifluoromethyl-3,4-dihydrobenzo[b]oxepin-5(2H)-ylidene)-N-(1-methyl-1H-pyrazolo[3,4-b]pyridin-3-yl)acetamide] was tested. Which “A2 VALUE” did it give?
**A.** The value was “B (compounds having an A2 value of 100 nM or more are represented by B)”.

**Q.** `O=C(/C=C1\CCCOc2cc(C(F)(F)F)ccc21)Nc1n[nH]c2ccccc12` [Example 42, (E)-2-(8-trifluoromethyl-3,4-dihydrobenzo[b]oxepin-5(2H)-ylidene)-N-(1H-indazol-3-yl)acetamide] was tested. Which “A2 VALUE” did it give?
**A.** The value was “B (compounds having an A2 value of 100 nM or more are represented by B)”.

**Q.** With `CCn1c(NC(=O)/C=C2\CCCOc3cc(C(F)(F)F)ccc32)nc2ccccc21` [Example 43, (E)-N-(1-ethyl-1H-benzo[d]imidazolo-2-yl)-2-(8-trifluoromethyl-3,4-dihydrobenzo[b]oxepin-5(2H)-ylidene)acetamide] as the molecule, how does the “A2 VALUE” read?
**A.** Its value is “B (compounds having an A2 value of 100 nM or more are represented by B)”.

**Q.** For `O=C(/C=C1\CCCOc2cc(C(F)(F)F)ccc21)Nc1ccnc2ncnn12` [Example 44, (E)-N-([1,2,4]triazolo[1,5-a]pyrimidin-7-yl)-2-(8-trifluoromethyl-3,4-dihydrobenzo[b]oxepin-5(2H)-ylidene)acetamide], which “A2 VALUE” is on record?
**A.** Its value is “B (compounds having an A2 value of 100 nM or more are represented by B)”.

**Q.** Which “A2 VALUE” does the source give for `O=C(/C=C1\CCCOc2cc(C(F)(F)F)ccc21)NC1CCCc2cccnc2C1` (stereo not shown) [Example 45, (E)-2-(8-trifluoromethyl-3,4-dihydrobenzo[b]oxepin-5(2H)-ylidene)-N-(6,7,8,9-tetrahydro-5H-cyclohepta[b]pyridin-8-yl)acetamide] here?
**A.** The value was “B (compounds having an A2 value of 100 nM or more are represented by B)”.

**Q.** How did the “A2 VALUE” turn out when `Cc1cc(NC(=O)/C=C2\CCCOc3cc(C(F)(F)F)ccc32)n(C(C)(C)C)n1` [Example 46, (E)-N-(1-tert-butyl-3-methyl-1H-pyrazolo-5-yl)-2-(8-trifluoromethyl-3,4-dihydrobenzo[b]oxepin-5(2H)-ylidene)acetamide] was run?
**A.** Its value is “B (compounds having an A2 value of 100 nM or more are represented by B)”.

**Q.** How did the “A2 VALUE” turn out when `O=C(/C=C1\CCCOc2cc(C(F)(F)F)ccc21)Nc1nc(-c2ccccc2)cs1` [Example 47, (E)-2-(8-trifluoromethyl-3,4-dihydrobenzo[b]oxepin-5(2H)-ylidene)-N-(4-phenylthiazolo-2-yl)acetamide] was run?
**A.** The value was “B (compounds having an A2 value of 100 nM or more are represented by B)”.

**Q.** Which “A2 VALUE” does the source give for `CC(=O)N1CC/C(=C\C(=O)Nc2ccc3cccnc3c2)c2ccc(C(F)(F)F)cc21` [Example 48, (E)-2-(1-acetyl-7-trifluoromethyl-2,3-dihydroquinolin-4(1H)-ylidene)-N-(quinolin-7-yl)acetamide] here?
**A.** The value was “A (compounds of the present invention having an A2 value of less than 100 nM are represented by A)”.

**Q.** For `O=C(/C=C1\CCNc2cc(C(F)(F)F)ccc21)NC1CCc2cccnc2C1` (stereo not shown) [Example 49, (E)-2-(7-trifluoromethyl-2,3-dihydroquinolin-4(1H)-ylidene)-N-(5,6,7,8-tetrahydroquinolin-7-yl)acetamide], which “A2 VALUE” is on record?
**A.** The value was “B (compounds having an A2 value of 100 nM or more are represented by B)”.

Reference: patent US7910751B2, “Heterocyclidene acetamide derivative” (Mochida Pharmaceutical Co., Ltd., priority 2005, dated 2011)
